Assay results reported in PubChem BioAssay AID250 (DTP/NCI, 2004).
Values joined by “and” are separate entries in the source; they are usually repeats but may differ in a detail not shown here. Identical values can stand only once. Toxic doses and inconclusive results are not listed.

Test system: BDF1 mice, L1210 leukemia sc, survival T/C
Assay: NCI In Vivo Anticancer Drug Screen. Data for tumor model L1210 Leukemia (subcutaneous) in B6D2F1 (BDF1) mice
Conditions: higher = longer survival
Summary of the method: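 Mice carrying transplanted tumors received test compounds, and survival or tumor size was measured. Values are the treated-group measurement (T) divided by that of the vehicle-treated control group (C).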

[1] = endpoint: median survival time, dose: 0.65 mg/kg/injection, schedule: Q01DX Z (sc), vehicle: methylcellulose (MC)
[2] = endpoint: median survival time, dose: 1.08 mg/kg/injection, schedule: Q01DX Z (sc), vehicle: methylcellulose (MC)
[3] = endpoint: median survival time, dose: 1.8 mg/kg/injection, schedule: Q01DX Z (sc), vehicle: methylcellulose (MC)
[4] = endpoint: median survival time, dose: 3.0 mg/kg/injection, schedule: Q01DX Z (sc), vehicle: methylcellulose (MC)
[5] = endpoint: median survival time, dose: 180.0 mg/kg/injection, schedule: Q01DX Z (sc), vehicle: carboxymethylcellulose (CMC)
[6] = endpoint: median survival time, dose: 39.0 mg/kg/injection, schedule: Q01DX Z (sc), vehicle: methylcellulose (MC)
[7] = endpoint: median survival time, dose: 65.0 mg/kg/injection, schedule: Q01DX Z (sc), vehicle: methylcellulose (MC)
[8] = endpoint: median survival time, dose: 108.0 mg/kg/injection, schedule: Q01DX Z (sc), vehicle: methylcellulose (MC)
[9] = endpoint: median survival time, dose: 180.0 mg/kg/injection, schedule: Q01DX Z (sc), vehicle: methylcellulose (MC)
[10] = endpoint: median survival time, dose: 300.0 mg/kg/injection, schedule: Q01DX Z (sc), vehicle: methylcellulose (MC)
[11] = endpoint: median survival time, dose: 500.0 mg/kg/injection, schedule: Q01DX Z (sc), vehicle: methylcellulose (MC)

CCN1C=C/C(=C\C=C/c2cc[n+](CC)c3ccccc23)c2ccccc21
T/C (endpoint: median survival time, dose: 0.05 mg/kg/injection, schedule: Q01DX Z (sc), vehicle: methylcellulose (MC)): 100 % of control | T/C (endpoint: median survival time, dose: 0.08 mg/kg/injection, schedule: Q01DX Z (sc), vehicle: methylcellulose (MC)): 100 % of control | T/C (endpoint: median survival time, dose: 0.14 mg/kg/injection, schedule: Q01DX Z (sc), vehicle: methylcellulose (MC)): 100 % of control | T/C (endpoint: median survival time, dose: 0.23 mg/kg/injection, schedule: Q01DX Z (sc), vehicle: methylcellulose (MC)): 100 % of control | T/C (endpoint: median survival time, dose: 0.39 mg/kg/injection, schedule: Q01DX Z (sc), vehicle: methylcellulose (MC)): 100 % of control | T/C [1]: 100 % of control | T/C [2]: 100 % of control | T/C [3]: 111 % of control | T/C [4]: 105 % of control

CC[n+]1ccc(Nc2ccc(NC(=O)c3ccc(Nc4cc[n+](CC)c5ccc(N)cc45)cc3)cc2)cc1
T/C (endpoint: median survival time, dose: 0.5 mg/kg/injection, schedule: Q01DX009 (sc), vehicle: water): 100 % of control | T/C (endpoint: median survival time, dose: 0.5 mg/kg/injection, schedule: Q03HX024 (ip), vehicle: water): 122 % of control | T/C (endpoint: median survival time, dose: 1.0 mg/kg/injection, schedule: Q01DX009 (ip), vehicle: water): 172 % of control | T/C (endpoint: median survival time, dose: 1.0 mg/kg/injection, schedule: Q01DX009 (sc), vehicle: water): 105 % of control | T/C (endpoint: median survival time, dose: 1.0 mg/kg/injection, schedule: Q03HX024 (ip), vehicle: water): 177 % of control | T/C (endpoint: median survival time, dose: 1.0 mg/kg/injection, schedule: Q03HX024 (sc), vehicle: water): 115 % of control | T/C (endpoint: median survival time, dose: 2.0 mg/kg/injection, schedule: Q01DX009 (ip), vehicle: water): 172 % of control | T/C (endpoint: median survival time, dose: 2.0 mg/kg/injection, schedule: Q03HX008 (sc), vehicle: water): 120 % of control | T/C (endpoint: median survival time, dose: 2.0 mg/kg/injection, schedule: Q03HX024 (ip), vehicle: water): 200 % of control | T/C (endpoint: median survival time, dose: 2.0 mg/kg/injection, schedule: Q03HX024 (sc), vehicle: water): 160 % of control | T/C (endpoint: median survival time, dose: 2.0 mg/kg/injection, schedule: Q04DX003 (sc), vehicle: water): 100 % of control | T/C (endpoint: median survival time, dose: 4.0 mg/kg/injection, schedule: Q01DX001 (sc), vehicle: water): 110 % of control | T/C (endpoint: median survival time, dose: 4.0 mg/kg/injection, schedule: Q01DX009 (ip), vehicle: water): 122 % of control | T/C (endpoint: median survival time, dose: 4.0 mg/kg/injection, schedule: Q01DX009 (sc), vehicle: water): 210 % of control | T/C (endpoint: median survival time, dose: 4.0 mg/kg/injection, schedule: Q03HX024 (sc), vehicle: water): 190 % of control | T/C (endpoint: median survival time, dose: 4.0 mg/kg/injection, schedule: Q04DX003 (sc), vehicle: water): 115 % of control | T/C (endpoint: median survival time, dose: 8.0 mg/kg/injection, schedule: Q01DX001 (sc), vehicle: water): 110 % of control | T/C (endpoint: median survival time, dose: 8.0 mg/kg/injection, schedule: Q01DX009 (ip), vehicle: water): 111 % of control | T/C (endpoint: median survival time, dose: 8.0 mg/kg/injection, schedule: Q01DX009 (sc), vehicle: water): 170 % of control | T/C (endpoint: median survival time, dose: 8.0 mg/kg/injection, schedule: Q03HX008 (sc), vehicle: water): 185 % of control | T/C (endpoint: median survival time, dose: 8.0 mg/kg/injection, schedule: Q03HX024 (ip), vehicle: water): 111 % of control | T/C (endpoint: median survival time, dose: 16.0 mg/kg/injection, schedule: Q04DX003 (sc), vehicle: water): 165 % of control

COc1cc(NS(C)(=O)=O)ccc1Nc1c2ccccc2nc2c(C)cccc12
T/C (endpoint: mean survival time, dose: 2.5 mg/kg/injection, schedule: Q01DX009 (ip), vehicle: saline): 100 % of control and 114 % of control | T/C (endpoint: mean survival time, dose: 5.0 mg/kg/injection, schedule: Q01DX009 (ip), vehicle: saline): 108 % of control and 103 % of control | T/C (endpoint: mean survival time, dose: 10.0 mg/kg/injection, schedule: Q01DX009 (ip), vehicle: saline): 99 % of control

CN(C)c1ccc(/C=C/c2cc[n+](C)c3ccccc23)cc1
T/C [1]: 109 % of control | T/C [2]: 109 % of control | T/C [3]: 109 % of control | T/C [4]: 109 % of control

CCOC(=O)c1ccc(N)nc1
T/C (endpoint: median survival time, dose: 1.81 mg/kg/injection, schedule: Q01DX Z (sc), vehicle: water): 100 % of control | T/C (endpoint: median survival time, dose: 3.02 mg/kg/injection, schedule: Q01DX Z (sc), vehicle: water): 100 % of control | T/C (endpoint: median survival time, dose: 5.04 mg/kg/injection, schedule: Q01DX Z (sc), vehicle: water): 100 % of control | T/C (endpoint: median survival time, dose: 8.4 mg/kg/injection, schedule: Q01DX Z (sc), vehicle: water): 100 % of control | T/C (endpoint: median survival time, dose: 14.0 mg/kg/injection, schedule: Q01DX Z (sc), vehicle: water): 100 % of control | T/C (endpoint: median survival time, dose: 23.3 mg/kg/injection, schedule: Q01DX Z (sc), vehicle: water): 100 % of control | T/C (endpoint: median survival time, dose: 38.9 mg/kg/injection, schedule: Q01DX Z (sc), vehicle: water): 100 % of control

C=CC(CN1CC1)OC(C)=O (stereo not given)
T/C (endpoint: median survival time, dose: 2.8 mg/kg/injection, schedule: Q01DX Z (sc), vehicle: saline): 111 % of control | T/C (endpoint: median survival time, dose: 4.7 mg/kg/injection, schedule: Q01DX Z (sc), vehicle: saline): 122 % of control | T/C (endpoint: median survival time, dose: 7.8 mg/kg/injection, schedule: Q01DX Z (sc), vehicle: saline): 150 % of control | T/C (endpoint: median survival time, dose: 13.0 mg/kg/injection, schedule: Q01DX Z (sc), vehicle: saline): 188 % of control | T/C (endpoint: median survival time, dose: 22.0 mg/kg/injection, schedule: Q01DX Z (sc), vehicle: saline): 155 % of control | T/C (endpoint: median survival time, dose: 60.0 mg/kg/injection, schedule: Q01DX Z (sc), vehicle: saline): 122 % of control

N[C@H](C(=O)O)[C@@H]1CC(Cl)=NO1
T/C (endpoint: median survival time, dose: 1.0 mg/kg/injection, schedule: Q01DX009 (sc), vehicle: saline): 113 % of control | T/C (endpoint: median survival time, dose: 2.0 mg/kg/injection, schedule: Q01DX009 (sc), vehicle: saline): 150 % of control | T/C (endpoint: median survival time, dose: 4.0 mg/kg/injection, schedule: Q01DX009 (sc), vehicle: saline): 159 % of control | T/C (endpoint: median survival time, dose: 8.0 mg/kg/injection, schedule: Q01DX009 (sc), vehicle: saline): 151 % of control and 172 % of control | T/C (endpoint: median survival time, dose: 16.0 mg/kg/injection, schedule: Q01DX009 (sc), vehicle: saline): 162 % of control | T/C (endpoint: median survival time, dose: 32.0 mg/kg/injection, schedule: Q01DX009 (sc), vehicle: saline): 159 % of control | T/C (endpoint: median survival time, dose: 64.0 mg/kg/injection, schedule: Q01DX009 (sc), vehicle: saline): 154 % of control

O=P(N1CCOCC1)(N1CC1)N1CC1
T/C (endpoint: median survival time, dose: 5.0 mg/kg/injection, schedule: Q01DX Z (sc), vehicle: saline): 96 % of control and 110 % of control | T/C (endpoint: median survival time, dose: 8.4 mg/kg/injection, schedule: Q01DX Z (sc), vehicle: saline): 100 % of control and 110 % of control | T/C (endpoint: median survival time, dose: 23.0 mg/kg/injection, schedule: Q01DX Z (sc), vehicle: saline): 160 % of control and 164 % of control | T/C (endpoint: median survival time, dose: 65.0 mg/kg/injection, schedule: Q01DX Z (sc), vehicle: saline): 112 % of control

CN(C)c1ccc(/C=C2\C=Cc3ccccc32)cc1
T/C [5]: 100 % of control | T/C (endpoint: median survival time, dose: 300.0 mg/kg/injection, schedule: Q01DX Z (sc), vehicle: carboxymethylcellulose (CMC)): 100 % of control | T/C (endpoint: median survival time, dose: 500.0 mg/kg/injection, schedule: Q01DX Z (sc), vehicle: carboxymethylcellulose (CMC)): 105 % of control | T/C (endpoint: median survival time, dose: 833.0 mg/kg/injection, schedule: Q01DX Z (sc), vehicle: carboxymethylcellulose (CMC)): 111 % of control

NC(=O)c1ccc([N+](=O)[O-])cc1
T/C (endpoint: median survival time, dose: 23.0 mg/kg/injection, schedule: Q01DX Z (sc), vehicle: methylcellulose (MC)): 90 % of control | T/C [6]: 100 % of control | T/C [7]: 90 % of control | T/C [8]: 90 % of control | T/C [9]: 90 % of control | T/C [10]: 100 % of control | T/C [11]: 100 % of control

C[C@]12CCC(=O)C=C1CC[C@@H]1[C@@H]2C(=O)C[C@@]2(C)[C@H]1CC[C@]2(O)C(=O)CO
T/C [6]: 100 % of control | T/C [7]: 104 % of control | T/C [8]: 104 % of control | T/C [9]: 100 % of control | T/C [10]: 100 % of control

OCC1OC(n2cnc3c(Cl)ncnc32)C(O)C1O (stereo not given)
T/C [6]: 100 % of control | T/C [7]: 100 % of control | T/C [8]: 100 % of control | T/C [9]: 100 % of control | T/C [10]: 95 % of control and 100 % of control | T/C [11]: 94 % of control and 105 % of control | T/C (endpoint: median survival time, dose: 833.0 mg/kg/injection, schedule: Q01DX Z (sc), vehicle: methylcellulose (MC)): 105 % of control

CN(C)N=Nc1ccc(CCCC(=O)NN)cc1
T/C (endpoint: median survival time, dose: 23.0 mg/kg/injection, schedule: Q01DX Z (sc), vehicle: carboxymethylcellulose (CMC)): 109 % of control | T/C (endpoint: median survival time, dose: 39.0 mg/kg/injection, schedule: Q01DX Z (sc), vehicle: carboxymethylcellulose (CMC)): 118 % of control | T/C (endpoint: median survival time, dose: 65.0 mg/kg/injection, schedule: Q01DX Z (sc), vehicle: carboxymethylcellulose (CMC)): 109 % of control | T/C (endpoint: median survival time, dose: 108.0 mg/kg/injection, schedule: Q01DX Z (sc), vehicle: carboxymethylcellulose (CMC)): 109 % of control | T/C [5]: 113 % of control
